Experimental data reported in patent publication US20090054375A1, “Compositions, Systems, and/or Methods Involving Chlorine Dioxide” (priority 2007, published 2009).

Experiment: Enhanced solubility of beta-cyclodextrin in water containing ClO2 (slurry test)
Format: physicochemical
Details: 100 g slurries of 5% beta-cyclodextrin (w/w) in 8000 ppm ClO2 vs ultrapure water, mixed at 200 rpm for 3 days, dried 2 days

weight of dried undissolved beta-cyclodextrin from the ClO2 containing slurry, less than the control slurry: 0.32 g
Compound: OC[C@H]1O[C@@H]2O[C@H]3[C@H](O)[C@@H](O)[C@@H](O[C@H]4[C@H](O)[C@@H](O)[C@@H](O[C@H]5[C@H](O)[C@@H](O)[C@@H](O[C@H]6[C@H](O)[C@@H](O)[C@@H](O[C@H]7[C@H](O)[C@@H](O)[C@@H](O[C@H]8[C@H](O)[C@@H](O)[C@@H](O[C@H]1[C@H](O)[C@H]2O)O[C@@H]8CO)O[C@@H]7CO)O[C@@H]6CO)O[C@@H]5CO)O[C@@H]4CO)O[C@@H]3CO [beta-cyclodextrin]
